For this assay, the target named is VEGF receptor 2 kinase (VEGFR2, KDR/Flk-1) (Homo sapiens, UniProt P35968). The experiment in a line: in vitro kinase assay. It is filed as biochemical.

pIC50: −log10 of the molar value.

By pIC50 is commonly meant −log10 of the IC50, conventionally taken in molar units. Low values mean a large IC50, high ones a small IC50.

Chain of VEGF receptor 2 kinase (VEGFR2, KDR/Flk-1) (P35968 20-1356): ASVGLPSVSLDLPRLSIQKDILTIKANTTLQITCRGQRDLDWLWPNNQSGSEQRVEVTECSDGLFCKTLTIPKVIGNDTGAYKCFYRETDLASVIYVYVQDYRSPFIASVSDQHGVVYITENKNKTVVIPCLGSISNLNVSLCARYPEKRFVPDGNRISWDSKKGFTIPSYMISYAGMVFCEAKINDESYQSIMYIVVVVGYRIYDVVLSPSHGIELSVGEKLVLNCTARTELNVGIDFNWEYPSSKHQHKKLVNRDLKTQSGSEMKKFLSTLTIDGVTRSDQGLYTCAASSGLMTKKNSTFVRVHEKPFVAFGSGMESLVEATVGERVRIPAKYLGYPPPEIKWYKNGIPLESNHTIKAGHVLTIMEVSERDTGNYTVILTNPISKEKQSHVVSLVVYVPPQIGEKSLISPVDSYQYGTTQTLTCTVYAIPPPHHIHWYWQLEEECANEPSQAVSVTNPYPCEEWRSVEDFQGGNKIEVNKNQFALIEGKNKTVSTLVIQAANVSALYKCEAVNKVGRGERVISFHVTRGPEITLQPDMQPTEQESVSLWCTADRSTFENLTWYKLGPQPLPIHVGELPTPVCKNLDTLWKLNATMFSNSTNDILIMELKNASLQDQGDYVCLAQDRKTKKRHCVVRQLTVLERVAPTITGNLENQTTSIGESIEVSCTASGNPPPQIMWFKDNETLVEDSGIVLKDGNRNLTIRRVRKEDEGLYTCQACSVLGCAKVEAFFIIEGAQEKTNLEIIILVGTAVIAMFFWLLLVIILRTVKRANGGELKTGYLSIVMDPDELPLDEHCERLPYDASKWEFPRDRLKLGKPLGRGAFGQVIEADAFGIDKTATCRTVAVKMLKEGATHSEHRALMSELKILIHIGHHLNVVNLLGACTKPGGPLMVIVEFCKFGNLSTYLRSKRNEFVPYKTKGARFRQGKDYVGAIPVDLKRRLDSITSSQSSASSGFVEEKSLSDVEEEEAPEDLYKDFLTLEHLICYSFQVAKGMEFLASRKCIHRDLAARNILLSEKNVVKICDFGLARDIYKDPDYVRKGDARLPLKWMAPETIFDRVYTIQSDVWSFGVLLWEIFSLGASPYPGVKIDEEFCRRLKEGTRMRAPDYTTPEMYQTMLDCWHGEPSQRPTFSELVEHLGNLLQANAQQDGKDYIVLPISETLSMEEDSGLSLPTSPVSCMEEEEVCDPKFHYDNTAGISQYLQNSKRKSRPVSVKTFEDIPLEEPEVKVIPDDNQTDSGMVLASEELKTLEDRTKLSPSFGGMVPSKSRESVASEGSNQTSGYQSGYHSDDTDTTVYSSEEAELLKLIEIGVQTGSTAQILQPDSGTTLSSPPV

For the compound `CC(=O)O[C@@H]1CC[C@@]2(C)[C@@H](CC[C@]3(C)[C@@H]2C(=O)C=C2[C@@H]4[C@@H](C)[C@H](C)CC[C@]4(C)CC[C@]23C)[C@@]1(C)C(=O)O` [AKBA], the pIC50 is 5.77.

The values above are taken from paper PMC2724674 (Cancer research, 2009).
